What was measured:
[1] = target: T1, HmuY^Bf-2 (Bacteroides fragilis, UniProt Q5LGH3); test: UV-visible difference absorbance spectroscopy; semi-denaturing PAGE with fluorescence detection; type: binding; conditions: 5 uM protein, 5 uM PPIX, PBS pH 7.4, room temperature
T1 construct: gene BF9343_0985; 8xHis-MBP tag cut off with Factor Xa; E. coli host

[2] = target: T2, HusA^Pg (Porphyromonas gingivalis, UniProt Q7MSY3); test: UV-visible difference absorbance spectroscopy; type: binding; conditions: 5 uM protein, 5 uM PPIX, PBS pH 7.4, room temperature; complex seen by spectroscopy only
T2 construct: gene PG_2227; 8xHis-MBP tag cut off with Factor Xa; E. coli host; strain of the plasmid only in supplement (W83 is the BLAST query strain)
T2 sequence (Q7MSY3 entry or part of it): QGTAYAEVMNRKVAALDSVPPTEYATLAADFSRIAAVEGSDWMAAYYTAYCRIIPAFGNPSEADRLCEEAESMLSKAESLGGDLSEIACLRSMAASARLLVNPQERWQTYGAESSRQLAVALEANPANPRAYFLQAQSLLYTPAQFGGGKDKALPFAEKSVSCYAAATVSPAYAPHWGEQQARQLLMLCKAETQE

T1 sequence (Q5LGH3 entry or part of it): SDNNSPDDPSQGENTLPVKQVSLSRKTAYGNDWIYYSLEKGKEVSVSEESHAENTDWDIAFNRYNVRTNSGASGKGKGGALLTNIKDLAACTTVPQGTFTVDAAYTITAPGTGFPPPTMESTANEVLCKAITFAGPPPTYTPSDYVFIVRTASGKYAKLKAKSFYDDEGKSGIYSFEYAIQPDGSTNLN

SMILES: C=CC1=C(C)c2cc3[nH]c(cc4nc(cc5[nH]c(cc1n2)c(C)c5CCC(=O)O)C(CCC(=O)O)=C4C)c(C)c3C=C [PPIX]
- UV-visible difference absorbance spectroscopy; semi-denaturing PAGE with fluores [1]: PPIX binding by HmuY^Bf-2 were detected after electrophoretic separation of proteins and porphyrins
- UV-visible difference absorbance spectroscopy [2]: HmuY^Bf-2, which, similar to HusA^Pg, binds both heme and PPIX
